Assay results published in patent publication US4690925A, “(2-Oxo-1,2,3,5-tetrahydroimidazo-[2,1-B]quinazolinyl) oxyalkylamides properties having phosphodiosterase inhibiting” (Syntex (U.S.A.) Inc., priority 1985, dated 1987).

Tests used:
[1] = system: Soluble dog heart PDE; test: Cyclic AMP phosphodiesterase inhibition, soluble dog heart PDE (Table I); format: biochemical; settings: soluble dog heart PDE (footnote a)
Method: (§1) The inhibition of cyclic AMP phosphodiesterase activity by the subject compounds was assayed by the method of Filburn and Karn, Analyt. Biochem., 52: 505-516 (1973), using 1 μM cyclic AMP as the substrate. Human platelet cyclic AMP phosphodiesterase was obtained from human donors. Platelets were isolated and washed by centrifugation, the membranes ruptured by a sequential freeze-thaw procedure and hypotonic lysis and the soluble enzyme isolated by high speed centrifugation. The enzyme was stored in aliquots at -20° C.
(§2) This table contains the IC50 values for human platelet phosphodiesterase and IC25 values for rat heart phosphodiesterase.
^a Soluble dog heart PDE

[2] = molecular target: T1, Human platelet cyclic AMP phosphodiesterase (Homo sapiens, UniProt Q14432); test: Cyclic AMP phosphodiesterase assay, human platelet enzyme (Table I); format: biochemical; settings: for IC50: 1 μM cyclic AMP as substrate, soluble enzyme from human platelets, read-out: Human Platelet IC50 (inhibition of cyclic AMP phosphodiesterase); for Relative Potency: relative to theophylline, which is assigned a value of 1 on human platelet phosphodiesterase
T1 construct: from tissue; host or cells: human platelets from donors, soluble fraction after freeze-thaw and hypotonic lysis
Method: as §1, §2

[3] = system: Mongrel dogs; test: Inotropic activity in anesthetized mongrel dogs (Table II); format: in vivo, dog; settings: 1 mg/kg i.v., suspended in carboxymethylcellulose, vagotomized dogs
Method: Mongrel dogs were anesthetized intravenously with 35 mg/kg sodium pentobarbital and supplemented as needed. Blood pressure was measured with a Statham pressure transducer via a cannula inserted from a femoral artery into the abdominal aorta. Heart rate was recorded by a cardiotachometer from a lead II electrocardiogram. Right ventricular contractile force was recorded from a Walton-Brodie strain gauge sutured to the right ventricle following a midsternal thoracotomy. A Harvard respirator was used to ventilate the dogs with room air through an endotracheal tube. Each dog was bilaterally vagotomized. Following a midline laparotomy, a cannula was sutured into the duodenum for intraduodenal administration of test compound. A femoral vein was cannulated for administration of isoproterenol. All data were recorded on a Beckman R611 Dynograph.
To assess the responsiveness of each dog, isoproterenol was given intravenously at half-log interval doses from 0.007 to 6.67 μg/kg. The test compound was then administered intravenously at 1 mg/kg.

[4] = system: Lewis Lung Carcinoma; test: Antimetastatic activity against Lewis Lung Carcinoma (spontaneous metastases) (Table III); format: in vivo, mice (female, C57B1/6); settings: 5 mg/kg oral, every other day, 20 to 21 days
Method: Mice (female, C57B1/6, 16-18 g) were inoculated subcutaneously between the inguinal and axillary areas with 0.2 ml of a freshly prepared tumor brei. Control mice were treated with vehicle. Other mice were treated orally with test compound in suspension in 0.5% carboxymethylcellulose (CMC). Treatments were initiated one day after tumor implanation, and continued every other day throughout the experiment. 20 to 21 days after implantation of the tumor, mice were sacrificed, the primary tumor was weighed, and the number of lung metastases was determined by counting under a dissecting microscope.

[5] = system: Soluble rat heart PDE; test: Cyclic AMP phosphodiesterase inhibition, soluble rat heart PDE (Table I); format: biochemical; settings: soluble rat heart PDE (footnote b)
Method: as §1, §2
^b Soluble rat heart PDE

T1 sequence (Q14432 whole entry): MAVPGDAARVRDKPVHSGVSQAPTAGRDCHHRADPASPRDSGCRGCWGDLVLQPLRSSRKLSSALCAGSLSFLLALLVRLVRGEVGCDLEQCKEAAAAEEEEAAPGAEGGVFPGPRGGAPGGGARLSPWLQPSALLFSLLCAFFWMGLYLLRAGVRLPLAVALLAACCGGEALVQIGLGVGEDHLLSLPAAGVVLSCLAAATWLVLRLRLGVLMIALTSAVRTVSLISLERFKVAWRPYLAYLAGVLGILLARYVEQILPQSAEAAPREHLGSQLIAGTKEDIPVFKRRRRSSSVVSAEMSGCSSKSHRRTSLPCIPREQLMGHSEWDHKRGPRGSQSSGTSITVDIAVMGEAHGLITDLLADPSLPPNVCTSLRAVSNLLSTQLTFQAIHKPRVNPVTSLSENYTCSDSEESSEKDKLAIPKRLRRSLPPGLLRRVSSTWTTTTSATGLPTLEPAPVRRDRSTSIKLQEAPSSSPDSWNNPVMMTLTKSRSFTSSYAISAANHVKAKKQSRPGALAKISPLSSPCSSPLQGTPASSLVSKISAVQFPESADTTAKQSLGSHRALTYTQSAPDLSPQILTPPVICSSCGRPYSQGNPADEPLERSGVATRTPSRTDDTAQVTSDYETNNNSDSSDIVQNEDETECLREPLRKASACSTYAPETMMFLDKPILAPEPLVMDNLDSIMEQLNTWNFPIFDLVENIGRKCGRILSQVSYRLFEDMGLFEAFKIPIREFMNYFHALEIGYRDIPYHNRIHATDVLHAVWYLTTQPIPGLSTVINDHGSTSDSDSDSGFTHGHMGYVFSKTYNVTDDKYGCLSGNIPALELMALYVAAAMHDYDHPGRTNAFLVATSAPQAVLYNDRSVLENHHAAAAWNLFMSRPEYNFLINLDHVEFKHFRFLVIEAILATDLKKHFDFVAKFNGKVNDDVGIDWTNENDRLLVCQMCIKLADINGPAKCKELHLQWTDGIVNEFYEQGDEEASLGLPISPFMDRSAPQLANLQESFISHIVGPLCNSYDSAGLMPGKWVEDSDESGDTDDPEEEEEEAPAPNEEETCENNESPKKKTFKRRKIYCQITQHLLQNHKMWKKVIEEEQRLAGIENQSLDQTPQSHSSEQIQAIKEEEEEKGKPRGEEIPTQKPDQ

Compound	Heart IC25 (inhibition of cyclic AMP phosphodiesterase), soluble dog heart PDE [1] [nM]	IC50 [2] [nM]	Relative Potency [2]	Blood Pressure, peak effect [3]	Heart Rate, peak effect [3]	Rt. Ventricular Contractile Force, peak effect [3]	Number of Pulmonary Metastases, Range ([4]; control range 0-29)	Number of Pulmonary Metastases, Median ([4]; p < 0.05, control median 5)	Heart IC25 (inhibition of cyclic AMP phosphodiesterase), soluble rat heart PDE [5] [nM]
NC(=O)CN(C(=O)CCCOc1ccc2c(c1)CN1CC(=O)NC1=N2)C1CCCCC1 [2-(N-cyclohexyl-4-(2-oxo-1,2,3,5-tetrahydroimidazo[2,1-b]quinazolin-7-yl)oxybutyramidyl)acetamide]	100	11	24,500						
COC(=O)CN(C(=O)CCCOc1ccc2c(c1)CN1CC(=O)NC1=N2)C1CCCCC1 [Methyl 2-(N-cyclohexyl-4-(2-oxo-1,2,3,5-tetrahydroimidazo[2,1-b]quinazolin-7-yl)oxybutyramidyl)acetate]	10.0	2	135,000						
O=C(O)CN(C(=O)CCCOc1ccc2c(c1)CN1CC(=O)NC1=N2)C1CCCCC1 [2-(N-cyclohexyl-4-(2-oxo-1,2,3,5-tetrahydroimidazo[2,1-b]quinazolin-7-yl)oxybutyramidyl)acetic acid]		5	54,000	32 % of Max. Isoproterenol	30 % of Max. Isoproterenol	33 % of Max. Isoproterenol	0-11	0	100
